Reference: patent US7368430B2, “Selective inhibitors of nuclear factor-κB activation and uses thereof” (Research Development Foundation, priority 2003, dated 2008)
Where a SMILES comes first, the peptide text is derived from it.

What was measured:
KBM-5 cells = assay: Cytotoxicity assay (MTT assay); type: cell-based; details: 100 μM peptide; for effect on TNF-induced cytotoxicity (MTT): KBM-5 cells, TNF 72 h (FIG. 7A)
Description: Five thousand KBM-5 cells were seeded in triplicate in 96-well plates. Cells were pretreated with 100 μM PTD-p65-P1, and then incubated with the indicated concentrations of TNF for 72 hour. Thereafter, cell viability was analyzed by MTT assay.
Five thousand cells were seeded in triplicate in 96-well plates. Cells were pretreated with 100 μM protein transduction domain-p65-P1 and then incubated with indicated concentrations of TNF or doxorubicin or cisplatin for 72 hr. Thereafter, cell viability was analyzed by the MTT method.
The cytotoxic effects of […] were determined by the MTT uptake method as described (Manna et al., 2000a). Briefly, 5000 cells were incubated with synthetic peptides for 1 hour in triplicate in 96-well plates, and then treated with various concentration of TNF for 72 hours at 37° C. Thereafter, MTT solution was added to each well. After a 2-hr incubation at 37° C., extraction buffer (20% SDS, 50% dimethylformamide) was added, the cells were incubated overnight at 37° C., and then the OD was measured at 570 nm using a 96-well multiscanner (Dynex Technologies, MRX Revelation; Chantilly, Va.).

NF-κB = assay: EMSA of NF-κB activation in KBM-5 cells preincubated with peptides; type: cell-based; details: various concentrations of peptides 1 h, 0.1 nM TNF 30 min (FIG. 3C)
Description: NF-κB activation was examined by electrophoretic mobility shift assays as described (Chaturvedi et al., 1994; Takada and Aggarwal). Briefly, nuclear extracts prepared from TNF-treated cells (1×10^6/ml) were incubated with ^32P-end-labeled 45-mer double-stranded NF-κB oligonucleotide (10 ug of protein with 16 fmol of DNA) from the human immunodeficiency virus long terminal repeat, 5′-[…] CAGGGAGGCGTGG-3′ (SEQ ID NO. 1, boldface indicates NF-κB binding sites) for 30 min at 37° C., and the DNA-protein complex formed was separated from free oligonucleotide on 6.6% native polyacrylamide gels. […]
To determine the effects of peptide containing Ser 276 (PTD-p65-P1), KBM-5 cells was preincubated with the peptides for 1 h, and then treated with 0.1 nM TNF for the indicated times. Nuclear extracts were prepared, and NF-κB activation was analyzed by electrophoretic mobility shift assays (EMSA). […]
Lipopolysaccharide, IL-1, okadaic acid, PMA, H2O2, and cigarette smoke condensate are potent activators of NF-κB, but the mechanisms differ. […] Cells were preincubated with 150 μM protein transduction domain-p65-P1 for 1 h, treated with 0.1 nM TNF, 1 μg/ml LPS, 100 ng/ml IL-1, 500 nM okadaic acid, 10 ng/ml PMA, 500 μM H2O2, or 1 μg/ml cigarette smoke condensate and then analyzed for NF-κB activation by EMSA.

[1] = target: T1, NF-κB (p50-p65) binding to DNA (Homo sapiens, UniProt Q04206); assay: EMSA of NF-κB binding to DNA, nuclear extracts of TNF-treated cells incubated with peptides in vitro; type: biochemical; details: nuclear extracts of TNF-treated KBM-5 cells incubated 30 min with peptides (FIG. 2A)
T1 construct: endogenous in cells; host or cells: KBM-5 cells, TNF-treated, nuclear extract
T1 sequence (Q04206 whole entry): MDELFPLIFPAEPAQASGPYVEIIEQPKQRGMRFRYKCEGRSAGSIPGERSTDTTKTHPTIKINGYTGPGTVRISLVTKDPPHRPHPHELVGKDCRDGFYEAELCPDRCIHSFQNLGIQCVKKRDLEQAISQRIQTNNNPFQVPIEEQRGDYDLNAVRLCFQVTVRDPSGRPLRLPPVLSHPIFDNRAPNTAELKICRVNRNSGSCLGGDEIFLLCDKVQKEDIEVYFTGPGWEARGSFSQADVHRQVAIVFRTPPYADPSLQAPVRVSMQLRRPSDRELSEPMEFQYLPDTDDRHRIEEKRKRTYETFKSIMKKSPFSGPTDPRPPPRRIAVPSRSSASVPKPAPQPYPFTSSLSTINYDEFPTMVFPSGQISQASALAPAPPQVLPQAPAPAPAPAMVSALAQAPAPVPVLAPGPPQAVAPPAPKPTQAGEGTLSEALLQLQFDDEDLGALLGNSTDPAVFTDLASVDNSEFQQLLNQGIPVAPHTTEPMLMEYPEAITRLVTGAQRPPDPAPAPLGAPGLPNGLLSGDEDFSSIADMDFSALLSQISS
Description: Nuclear extracts were prepared from TNF-treated cells, incubated for 30 min with various concentrations of peptides, and then assayed for NF-κB activation by EMSA.
NF-κB activation was examined by electrophoretic mobility shift assays as described (Chaturvedi et al., 1994; Takada and Aggarwal). Briefly, nuclear extracts prepared from TNF-treated cells (1×10^6/ml) were incubated with ^32P-end-labeled 45-mer double-stranded NF-κB oligonucleotide (10 ug of protein with 16 fmol of DNA) from the human immunodeficiency virus long terminal repeat, 5′-[…] CAGGGAGGCGTGG-3′ (SEQ ID NO. 1, boldface indicates NF-κB binding sites) for 30 min at 37° C., and the DNA-protein complex formed was separated from free oligonucleotide on 6.6% native polyacrylamide gels. A double-stranded mutated oligonucleotide, 5′-[…]-3′(SEQ ID NO. 2) was used to examine the specificity of binding of NF-κB to the DNA. The specificity of binding was also examined by competition with unlabeled oligonucleotide.
The dose-dependent effect of protein transduction domain-p65-P1 and p65-P1 on p50-p65 binding to DNA was investigated. […] The protein transduction domain alone had no effect.

IKK complex = target: T2, IKK complex (Homo sapiens, UniProt O14920+O15111); assay: Cell-free phosphorylation of p65 peptides by immunoprecipitated IKK complex; type: biochemical; details: 10 μg of peptides as substrate (FIG. 5C)
T2 construct: Whole-cell extracts were prepared from TNF-treated cells and immunoprecipitated with antibody against IKK-α; endogenous in cells
T2 sequence (O15111 whole entry): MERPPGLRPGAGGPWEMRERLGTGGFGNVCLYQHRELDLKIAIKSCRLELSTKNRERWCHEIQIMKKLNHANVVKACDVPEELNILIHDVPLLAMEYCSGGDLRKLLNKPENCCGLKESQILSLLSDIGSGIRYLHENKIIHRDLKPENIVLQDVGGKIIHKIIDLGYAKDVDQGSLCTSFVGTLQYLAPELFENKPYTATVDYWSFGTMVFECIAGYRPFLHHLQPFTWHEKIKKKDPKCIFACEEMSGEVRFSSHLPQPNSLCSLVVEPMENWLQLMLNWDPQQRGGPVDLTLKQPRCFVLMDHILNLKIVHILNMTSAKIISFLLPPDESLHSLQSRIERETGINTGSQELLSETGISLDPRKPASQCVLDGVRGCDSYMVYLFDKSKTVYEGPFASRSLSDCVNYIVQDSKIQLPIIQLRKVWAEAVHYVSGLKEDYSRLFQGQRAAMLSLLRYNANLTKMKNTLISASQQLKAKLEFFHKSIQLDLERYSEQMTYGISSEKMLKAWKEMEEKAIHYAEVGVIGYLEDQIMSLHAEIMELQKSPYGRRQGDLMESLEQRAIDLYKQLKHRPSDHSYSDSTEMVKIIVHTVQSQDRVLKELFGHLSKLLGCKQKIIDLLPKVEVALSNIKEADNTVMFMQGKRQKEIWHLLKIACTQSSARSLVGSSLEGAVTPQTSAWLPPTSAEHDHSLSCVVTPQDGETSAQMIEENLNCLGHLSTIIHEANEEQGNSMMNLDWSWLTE
T2 sequence (O14920 whole entry): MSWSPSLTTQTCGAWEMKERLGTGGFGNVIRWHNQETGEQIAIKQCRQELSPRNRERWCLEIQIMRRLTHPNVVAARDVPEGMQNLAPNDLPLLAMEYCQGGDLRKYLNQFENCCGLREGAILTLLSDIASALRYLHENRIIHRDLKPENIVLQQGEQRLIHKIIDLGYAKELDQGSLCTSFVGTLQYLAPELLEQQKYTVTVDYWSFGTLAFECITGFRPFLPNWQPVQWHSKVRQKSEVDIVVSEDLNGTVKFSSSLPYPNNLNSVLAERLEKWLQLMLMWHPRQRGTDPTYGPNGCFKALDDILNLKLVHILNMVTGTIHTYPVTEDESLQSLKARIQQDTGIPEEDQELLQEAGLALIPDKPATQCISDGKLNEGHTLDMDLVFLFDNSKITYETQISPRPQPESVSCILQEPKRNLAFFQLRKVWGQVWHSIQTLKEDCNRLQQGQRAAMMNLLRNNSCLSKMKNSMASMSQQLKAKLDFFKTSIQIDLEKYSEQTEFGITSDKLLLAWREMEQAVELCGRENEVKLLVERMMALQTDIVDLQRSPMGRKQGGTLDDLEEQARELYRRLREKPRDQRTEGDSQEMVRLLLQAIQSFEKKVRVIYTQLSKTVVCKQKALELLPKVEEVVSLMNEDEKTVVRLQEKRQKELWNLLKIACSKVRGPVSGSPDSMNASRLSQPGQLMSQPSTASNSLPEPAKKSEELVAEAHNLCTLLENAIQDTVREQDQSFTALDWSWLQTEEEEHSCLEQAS
T2 sequence (Q9Y6K9 whole entry partner): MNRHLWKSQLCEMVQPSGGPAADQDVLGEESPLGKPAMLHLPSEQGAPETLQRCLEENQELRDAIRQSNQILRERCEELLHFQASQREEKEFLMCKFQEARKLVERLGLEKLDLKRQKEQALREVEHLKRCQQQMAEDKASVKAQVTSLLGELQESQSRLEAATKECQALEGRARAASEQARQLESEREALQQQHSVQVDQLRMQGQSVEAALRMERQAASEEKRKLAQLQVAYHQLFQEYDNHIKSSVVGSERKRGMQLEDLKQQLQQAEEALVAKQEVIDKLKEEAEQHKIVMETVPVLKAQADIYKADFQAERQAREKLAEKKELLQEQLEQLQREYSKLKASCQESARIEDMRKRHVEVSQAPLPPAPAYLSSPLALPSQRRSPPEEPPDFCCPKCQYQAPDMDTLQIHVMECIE
Description: Whole-cell extracts were prepared from TNF-treated cells and immunoprecipitated with antibody against IKK-α. Thereafter immunocomplex kinase assay was performed in the presence of the peptides as a substrate.
To determine the total amounts of IKK-α and IKK-β in each sample, […] of the whole-cell protein was resolved on 7.5% SDS-PAGE, electrotransferred to a nitrocellulose membrane, and then blotted with either anti-IKK-α or anti-IKK-β antibodies. Cell-free phosphorylation of peptide by IKK was also determined using 10 μg of peptides as a substrate in the kinase reaction mixture described above, and then fractionated on 20% SDS-PAGE in 2×SDS electrophoresis buffer.
p65-P1 and p65-p6 have one or two serine residues respectively. Whether these serine residues can be phosphorylated by IKK was investigated. Whole-cell extracts from TNF-treated cells were immunoprecipitated with antibody against IKK and then immunocomplex kinase assay was performed using p65-peptides as substrates. After reaction, samples were fractionated on 20% SDS-PAGE with 2-fold electrophoresis buffer.

Compound | effect on TNF-induced cytotoxicity (MTT) (KBM-5 cells) | inhibition of NF-κB binding to the DNA in vitro [1] | other results
CC[C@H](C)[C@H](NC(=O)[C@H](CCCCN)NC(=O)[C@@H](NC(=O)[C@H](CCC(N)=O)NC(=O)[C@H](CCCNC(=N)N)NC(=O)[C@@H](N)CC(=O)O)[C@@H](C)CC)C(=O)N[C@@H](Cc1c[nH]c2ccccc12)C(=O)N[C@@H](Cc1ccccc1)C(=O)N[C@@H](CCC(N)=O)C(=O)N[C@@H](CC(N)=O)C(=O)N[C@@H](CC(N)=O)C(=O)N[C@@H](CCCNC(=N)N)C(=O)N[C@@H](CCCNC(=N)N)C(=O)N[C@@H](CCSC)C(=O)N[C@@H](CCCCN)C(=O)N[C@@H](Cc1c[nH]c2ccccc12)C(=O)N[C@@H](CCCCN)C(=O)N[C@@H](CCCCN)C(=O)N[C@@H](CCC(N)=O)C(=O)N[C@@H](CC(C)C)C(=O)N[C@@H](CCCNC(=N)N)C(=O)N[C@@H](CCCNC(=N)N)C(=O)N1CCC[C@H]1C(=O)N[C@@H](CO)C(=O)N[C@@H](CC(=O)O)C(=O)N[C@@H](CCCNC(=N)N)C(=O)N[C@@H](CCC(=O)O)C(=O)N[C@@H](CC(C)C)C(=O)N[C@@H](CO)C(=O)N[C@@H](CCC(=O)O)C(=O)O [PTD-p65-P1] (H-DRQIKIWFQNNRRMKWKKQLRRPSDRELSE-OH) | enhanced TNF-induced cytotoxicity | – | effect on cisplatin-induced cytotoxicity (MTT) (KBM-5 cells; cisplatin 72 hr (FIG. 7D bottom panel)): potentiated; effect on doxorubicin-induced cytotoxicity (MTT) (KBM-5 cells; doxorubicin 72 hr (FIG. 7D top panel)): potentiated
CC(C)C[C@H](NC(=O)[C@H](CCC(=O)O)NC(=O)[C@H](CCCNC(=N)N)NC(=O)[C@H](CC(=O)O)NC(=O)[C@H](CO)NC(=O)[C@@H]1CCCN1C(=O)[C@H](CCCNC(=N)N)NC(=O)[C@H](CCCNC(=N)N)NC(=O)[C@H](CC(C)C)NC(=O)[C@@H](N)CCC(N)=O)C(=O)N[C@@H](CO)C(=O)N[C@@H](CCC(=O)O)C(=O)O [p65-P1, QLRRPSDRELSE] (H-QLRRPSDRELSE-OH) | had no effect | – | –
CC[C@H](C)[C@H](NC(=O)[C@H](CCCCN)NC(=O)[C@@H](NC(=O)[C@H](CCC(N)=O)NC(=O)[C@H](CCCNC(=N)N)NC(=O)[C@@H](N)CC(=O)O)[C@@H](C)CC)C(=O)N[C@@H](Cc1c[nH]c2ccccc12)C(=O)N[C@@H](Cc1ccccc1)C(=O)N[C@@H](CCC(N)=O)C(=O)N[C@@H](CC(N)=O)C(=O)N[C@@H](CC(N)=O)C(=O)N[C@@H](CCCNC(=N)N)C(=O)N[C@@H](CCCNC(=N)N)C(=O)N[C@@H](CCSC)C(=O)N[C@@H](CCCCN)C(=O)N[C@@H](Cc1c[nH]c2ccccc12)C(=O)N[C@@H](CCCCN)C(=O)N[C@@H](CCCCN)C(=O)O [protein transduction domain, reference compound] (H-DRQIKIWFQNNRRMKWKK-OH) | had no effect | – | –
PTD-p65-P6: SEQ ID NO. 10; antennapedia protein transduction domain linked to amino acid 525-537 of the p65 subunit (DRQIKIWFQNNRRMKWKKNGLLSGDEDFSS; CHAIN PTD-p65-P6, cell permeable NF-kb inhibitor) | – | – | effect on TNF-induced NF-κB activation (EMSA, dose response) (NF-κB): inhibited TNF-induced NF-κB activation in a dose dependent manner
p65-P2: Peptide in which Ser 276 was mutated (QLRRPADRELSE; CHAIN p65-P2, mutated peptide derived from the p65 subunit of NF-kB) | – | did not inhibit | –
p65-P4: Peptide in which five amino acid residues were deleted from the C-terminus (QLRRPSD; CHAIN p65-P4, mutated peptide derived from the p65 subunit of NF-kB) | – | inactive | –
p65-P5: Peptide in which three amino acid residues were deleted from the N-terminus (RPSDRELSE; CHAIN p65-P5, mutated peptide derived from the p65 subunit of NF-kB) | – | inactive | –
p65-P6: SEQ ID NO. 11; p65 peptide containing Ser 529 and 536, amino acid 525-537 of the p65 subunit (NGLLSGDEDFSS; CHAIN p65-P6, peptide derived from the p65 subunit of NF-kB) | – | – | effect on TNF-induced NF-κB activation (EMSA, dose response) (NF-κB): Neither a protein transduction domain nor p65-P6 alone had any effect; phosphorylation of the peptide by IKK complex (IKK complex): can phosphorylate
p65-P7: Peptide in which Ser 529 was mutated (NGLLAGDEDFSS; CHAIN p65-P7, mutated peptide derived from the p65 subunit of NF-kB) | – | did not inhibit | –
p65-p8: Peptide in which Ser 536 was mutated (NGLLSGDEDFSA; CHAIN p65-P8, mutated peptide derived from the p65 subunit of NF-kB) | – | did not inhibit | –
